Test results taken from patent US7981903B2, “2-[2-{phenylamino}-1H-pyrrolo[2,3-D]pyrimidin-4-yl)amino] benzamide derivatives as IGF-1R inhibitors for the treatment of cancer” (GlaxoSmithKline LLC, priority 2007, dated 2011).
pIC50: −log10 of the molar value.

Columns and labels:
Type in all cases: biochemical
[1] = molecular target: T1, human IR (hIR) (Homo sapiens, UniProt P06213); assay: TR-FRET kinase assay of purified hIR; settings: activated hIR 0.5 nM, 10 μM ATP, values given as pIC50 category
T1 construct: containing amino acid residues 979-1382 of human IR; made in house; host or cells: Sf9 cells (baculovirus), same process as hIGF1R

[2] = molecular target: ALK (Homo sapiens, UniProt Q9UM73); assay: ALK enzyme assay (HTRF); settings: 0.25 nM ALK, 15.0 μM ATP, values given as pIC50 category
Summary of the method: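 Isolated ALK phosphorylates a biotinylated tyrosine peptide, 120 min at 20° C; anti-phosphotyrosine Eu-cryptate/streptavidin-XL665 HTRF read after 60 min with EDTA-containing detection mix.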

[3] = molecular target: T2, human IGF1R (hIGF1R) (Homo sapiens, UniProt P08069); assay: TR-FRET kinase assay of purified hIGF1R; settings: activated hIGF1R 0.5 nM, 10 μM ATP, values given as pIC50 category, read-out: IGF-1R pIC50 (converted)
T2 construct: containing amino acid residues 957-1367 of human IGF1R; made in house; host or cells: Sf9 cells (baculovirus)
T2 sequence (P08069 957-1367): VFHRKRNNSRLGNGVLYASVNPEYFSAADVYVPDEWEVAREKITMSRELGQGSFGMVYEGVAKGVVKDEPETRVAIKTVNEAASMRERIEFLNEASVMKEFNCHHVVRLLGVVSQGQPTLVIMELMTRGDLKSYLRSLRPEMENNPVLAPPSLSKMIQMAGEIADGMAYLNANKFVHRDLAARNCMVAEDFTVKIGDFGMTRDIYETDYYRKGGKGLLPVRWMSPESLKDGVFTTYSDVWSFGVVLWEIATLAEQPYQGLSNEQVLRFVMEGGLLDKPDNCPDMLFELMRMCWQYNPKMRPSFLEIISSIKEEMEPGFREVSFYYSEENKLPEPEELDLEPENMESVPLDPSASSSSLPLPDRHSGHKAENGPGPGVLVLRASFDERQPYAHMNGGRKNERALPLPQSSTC

T1 sequence (P06213 979-1382): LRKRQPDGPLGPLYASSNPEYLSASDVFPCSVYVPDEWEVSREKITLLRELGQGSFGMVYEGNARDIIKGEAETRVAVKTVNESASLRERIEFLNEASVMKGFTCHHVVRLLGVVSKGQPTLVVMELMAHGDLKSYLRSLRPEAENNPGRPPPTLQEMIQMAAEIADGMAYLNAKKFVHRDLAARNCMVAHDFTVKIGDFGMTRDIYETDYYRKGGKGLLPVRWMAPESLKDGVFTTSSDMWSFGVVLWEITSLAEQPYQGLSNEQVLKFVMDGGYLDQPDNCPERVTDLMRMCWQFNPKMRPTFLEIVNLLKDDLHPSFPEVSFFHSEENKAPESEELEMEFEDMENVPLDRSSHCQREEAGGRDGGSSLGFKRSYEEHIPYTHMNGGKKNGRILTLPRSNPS
Sequence of ALK (Q9UM73 19-1620): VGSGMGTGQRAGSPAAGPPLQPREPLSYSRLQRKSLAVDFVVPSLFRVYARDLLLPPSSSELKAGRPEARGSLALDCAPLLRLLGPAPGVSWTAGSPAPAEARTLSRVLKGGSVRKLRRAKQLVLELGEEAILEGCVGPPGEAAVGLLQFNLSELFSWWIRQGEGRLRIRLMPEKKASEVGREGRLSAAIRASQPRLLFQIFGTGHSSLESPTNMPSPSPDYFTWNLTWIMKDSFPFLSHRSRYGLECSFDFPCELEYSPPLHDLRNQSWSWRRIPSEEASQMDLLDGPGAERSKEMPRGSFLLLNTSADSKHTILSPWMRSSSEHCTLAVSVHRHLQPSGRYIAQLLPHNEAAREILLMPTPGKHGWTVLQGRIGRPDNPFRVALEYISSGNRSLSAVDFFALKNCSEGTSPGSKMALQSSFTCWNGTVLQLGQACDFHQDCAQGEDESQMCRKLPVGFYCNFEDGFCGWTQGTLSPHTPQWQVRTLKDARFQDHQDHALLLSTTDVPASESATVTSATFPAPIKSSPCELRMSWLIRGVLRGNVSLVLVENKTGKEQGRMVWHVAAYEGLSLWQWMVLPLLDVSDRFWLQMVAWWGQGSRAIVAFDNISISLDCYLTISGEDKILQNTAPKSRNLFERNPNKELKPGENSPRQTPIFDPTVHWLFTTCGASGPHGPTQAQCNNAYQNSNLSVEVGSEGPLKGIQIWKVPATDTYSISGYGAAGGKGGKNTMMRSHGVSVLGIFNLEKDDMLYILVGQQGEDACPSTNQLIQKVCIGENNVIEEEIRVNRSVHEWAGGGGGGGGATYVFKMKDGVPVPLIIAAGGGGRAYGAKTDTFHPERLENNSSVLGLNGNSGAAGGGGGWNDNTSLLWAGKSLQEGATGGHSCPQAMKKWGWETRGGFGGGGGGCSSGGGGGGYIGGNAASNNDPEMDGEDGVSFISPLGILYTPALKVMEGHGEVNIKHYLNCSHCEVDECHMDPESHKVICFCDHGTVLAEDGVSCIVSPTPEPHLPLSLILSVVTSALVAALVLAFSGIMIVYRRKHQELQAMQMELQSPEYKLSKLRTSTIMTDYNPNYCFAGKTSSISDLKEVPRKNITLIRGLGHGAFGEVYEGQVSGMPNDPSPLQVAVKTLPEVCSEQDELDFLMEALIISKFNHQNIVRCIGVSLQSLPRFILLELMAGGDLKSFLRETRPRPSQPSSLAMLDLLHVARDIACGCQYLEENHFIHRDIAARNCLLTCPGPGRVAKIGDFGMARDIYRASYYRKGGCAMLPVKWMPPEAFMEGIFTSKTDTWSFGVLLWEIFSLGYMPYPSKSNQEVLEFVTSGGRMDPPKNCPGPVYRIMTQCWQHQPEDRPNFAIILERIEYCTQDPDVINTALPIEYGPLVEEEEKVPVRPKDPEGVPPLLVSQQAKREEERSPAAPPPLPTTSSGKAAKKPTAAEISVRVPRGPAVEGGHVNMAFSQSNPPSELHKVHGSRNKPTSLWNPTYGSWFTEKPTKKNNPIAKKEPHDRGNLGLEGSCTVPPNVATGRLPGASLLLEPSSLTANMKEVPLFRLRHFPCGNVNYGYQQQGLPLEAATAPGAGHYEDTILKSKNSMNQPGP

Row | pIC50 [1] | pIC50 [2] | IC50 [3] [nM] | SMILES
1 | 8.40 to 8.90 | 9.00 to 9.60 | 5.01 to 200 | COc1cc(OCCN2CCN(C)CC2)ccc1Nc1nc(Nc2cccc(F)c2C(N)=O)c2cc[nH]c2n1 [Example 203, 2-fluoro-6-({2-[(2-(methyloxy)-4-{[2-(4-methyl-1-piperazinyl)ethyl]oxy}phenyl)amino]-1H-pyrrolo[2,3-d]pyrimidin-4-yl}amino)benzamide]
2 | 8.40 to 8.90 | 9.00 to 9.60 | 5.01 to 200 | COc1cc(N2CCN(S(C)(=O)=O)CC2)ccc1Nc1nc(Nc2cccc(F)c2C(N)=O)c2cc[nH]c2n1 [Example 204, 2-fluoro-6-{[2-({2-(methyloxy)-4-[4-(methylsulfonyl)-1-piperazinyl]phenyl}amino)-1H-pyrrolo[2,3-d]pyrimidin-4-yl]amino}benzamide]
3 | 6.80 to 8.30 | 8.40 to 8.90 | 5.01 to 200 | COc1cc(N2CCCN(S(C)(=O)=O)CC2)ccc1Nc1nc(Nc2cccc(F)c2C(N)=O)c2cc[nH]c2n1 [Example 207, 2-fluoro-6-{[2-({2-(methyloxy)-4-[4-(methylsulfonyl)hexahydro-1H-1,4-diazepin-1-yl]phenyl}amino)-1H-pyrrolo[2,3-d]pyrimidin-4-yl]amino}benzamide]
4 | 9.00 to 9.60 | 9.00 to 9.60 | 0.251 to 1 | COc1cc2c(cc1Nc1nc(Nc3cccc(F)c3C(N)=O)c3cc[nH]c3n1)N(C(=O)CN(C)C)CCC2 [Example 210, 2-[(2-{[1-(N,N-dimethylglycyl)-6-(methyloxy)-1,2,3,4-tetrahydro-7-quinolinyl]amino}-1H-pyrrolo[2,3-d]pyrimidin-4-yl)amino]-6-fluorobenzamide]
5 | 6.80 to 8.30 | 6.70 to 8.30 | 5.01 to 200 | COc1cc2c(cc1Nc1nc(Nc3cccc(F)c3C(N)=O)c3cc[nH]c3n1)NCCC2 [Example 211, 2-fluoro-6-[(2-{[6-(methyloxy)-1,2,3,4-tetrahydro-7-quinolinyl]amino}-1H-pyrrolo[2,3-d]pyrimidin-4-yl)amino]benzamide]
6 | 6.80 to 8.30 | 6.70 to 8.30 | 5.01 to 200 | CNC(=O)c1c(F)cccc1Nc1nc(Nc2cc3c(cc2OC)CCCN3C(=O)CCN(C)C)nc2[nH]ccc12 [Example 213, 2-[(2-{[1-(N,N-dimethyl-β-alanyl)-6-(methyloxy)-1,2,3,4-tetrahydro-7-quinolinyl]amino}-1H-pyrrolo[2,3-d]pyrimidin-4-yl)amino]-6-fluoro-N-methylbenzamide]
7 | 9.00 to 9.60 | 8.40 to 8.90 | 0.251 to 1 | CNC(=O)c1c(F)cc(F)cc1Nc1nc(Nc2cc3c(cc2OC)CCCN3C(=O)CN2CCCC2)nc2[nH]ccc12 [Example 221, 2,4-difluoro-N-methyl-6-[(2-{[6-(methyloxy)-1-(1-pyrrolidinylacetyl)-1,2,3,4-tetrahydro-7-quinolinyl]amino}-1H-pyrrolo[2,3-d]pyrimidin-4-yl)amino]benzamide]

The remaining lines, values behind:

Row | SMILES | pIC50 [1] | pIC50 [2] | IC50 [3] [nM]
8 | COc1cc2c(cc1Nc1nc(Nc3cccc4c3C(=O)NC4)c3cc[nH]c3n1)N(C(=O)CN(C)C)CC2 [Example 200, 7-[(2-{[1-(N,N-dimethylglycyl)-5-(methyloxy)-2,3-dihydro-1H-indol-6-yl]amino}-1H-pyrrolo[2,3-d]pyrimidin-4-yl)amino]-2,3-dihydro-1H-isoindol-1-one] | 9.00 to 9.60 | 8.40 to 8.90 | 0.251 to 1
9 | CNC(=O)c1c(F)cccc1Nc1nc(Nc2cc3c(cc2OC)CCCN3C(=O)[C@@H]2CCCN2C)nc2[nH]ccc12 [Example 202, 2-fluoro-N-methyl-6-[(2-{[6-(methyloxy)-1-(1-methyl-L-prolyl)-1,2,3,4-tetrahydro-7-quinolinyl]amino}-1H-pyrrolo[2,3-d]pyrimidin-4-yl)amino]benzamide] | 6.80 to 8.30 | 6.70 to 8.30 | 5.01 to 200
10 | COc1cc(OCCCN2CCN(C)CC2)ccc1Nc1nc(Nc2cccc(F)c2C(N)=O)c2cc[nH]c2n1 [Example 205, 2-fluoro-6-({2-[(2-(methyloxy)-4-{[3-(4-methyl-1-piperazinyl)propyl]oxy}phenyl)amino]-1H-pyrrolo[2,3-d]pyrimidin-4-yl}amino)benzamide] | 8.40 to 8.90 | 8.40 to 8.90 | 5.01 to 200
11 | COc1cc(N2CCCN(C(C)C)CC2)ccc1Nc1nc(Nc2cccc(F)c2C(N)=O)c2cc[nH]c2n1 [Example 208, 2-fluoro-6-[(2-{[4-[4-(1-methylethyl)hexahydro-1H-1,4-diazepin-1-yl]-2-(methyloxy)phenyl]amino}-1H-pyrrolo[2,3-d]pyrimidin-4-yl)amino]benzamide] | 6.80 to 8.30 | 9.00 to 9.60 | 5.01 to 200
12 | COc1cc2c(cc1Nc1nc(Nc3cccc(F)c3C(N)=O)c3cc[nH]c3n1)N(C(=O)CCN(C)C)CCC2 [Example 214, 2-[(2-{[1-(N,N-dimethyl-β-alanyl)-6-(methyloxy)-1,2,3,4-tetrahydro-7-quinolinyl]amino}-1H-pyrrolo[2,3-d]pyrimidin-4-yl)amino]-6-fluorobenzamide] | 6.80 to 8.30 | 6.70 to 8.30 | 5.01 to 200
13 | COc1cc2c(cc1Nc1nc(Nc3cccc(F)c3C(N)=O)c3cc[nH]c3n1)N(C(=O)CN1CCCCC1)CCC2 [Example 218, 2-fluoro-6-[(2-{[6-(methyloxy)-1-(1-piperidinylacetyl)-1,2,3,4-tetrahydro-7-quinolinyl]amino}-1H-pyrrolo[2,3-d]pyrimidin-4-yl)amino]benzamide] | 9.00 to 9.60 | 9.00 to 9.60 | 0.251 to 1
14 | COc1cc2c(cc1Nc1nc(Nc3cc(F)cc(F)c3C(N)=O)c3cc[nH]c3n1)N(C(=O)CN1CCCC1)CCC2 [Example 219, 2,4-difluoro-6-[(2-{[6-(methyloxy)-1-(1-pyrrolidinylacetyl)-1,2,3,4-tetrahydro-7-quinolinyl]amino}-1H-pyrrolo[2,3-d]pyrimidin-4-yl)amino]benzamide] | 9.00 to 9.60 | 9.00 to 9.60 | 0.251 to 1
15 | COc1cc2c(cc1Nc1nc(Nc3cccc(F)c3C(N)=O)c3cc[nH]c3n1)CN(C(=O)CCN1CCN(C(C)C)CC1)CC2 [Example 229, 2-fluoro-6-[(2-{[2-{3-[4-(1-methylethyl)-1-piperazinyl]propanoyl}-6-(methyloxy)-1,2,3,4-tetrahydro-7-isoquinolinyl]amino}-1H-pyrrolo[2,3-d]pyrimidin-4-yl)amino]benzamide] | 6.80 to 8.30 | 6.70 to 8.30 | 5.01 to 200
16 | COc1cc2c(cc1Nc1nc(Nc3cccc(F)c3C(N)=O)c3cc[nH]c3n1)CN(C(=O)CCN(C)C)CC2 [Example 230, 2-[(2-{[2-(N,N-dimethyl-β-alanyl)-6-(methyloxy)-1,2,3,4-tetrahydro-7-isoquinolinyl]amino}-1H-pyrrolo[2,3-d]pyrimidin-4-yl)amino]-6-fluorobenzamide] | 6.80 to 8.30 | 6.70 to 8.30 | 5.01 to 200
17 | COc1cc2c(cc1Nc1nc(Nc3cccc(F)c3C(N)=O)c3cc[nH]c3n1)CN(C(=O)CCN1CCOCC1)CC2 [Example 231, 2-fluoro-6-{[2-({6-(methyloxy)-2-[3-(4-morpholinyl)propanoyl]-1,2,3,4-tetrahydro-7-isoquinolinyl}amino)-1H-pyrrolo[2,3-d]pyrimidin-4-yl]amino}benzamide] | 6.80 to 8.30 | 6.70 to 8.30 | 5.01 to 200
